Legend:
Experiment in all cases: relative viability (nuclei count vs DMSO), 5 days (fraction); higher = more cells survive
[1] = tested on: LOU-NH91
Summary of the method: (§1)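 Dosing by pin tool came one day after lung cancer cell lines were seeded in 1536-well plates, using either one drug or a fixed anchor-drug dose plus five library-drug doses (not always all listed) in √10 steps. After 5 days, nuclei were counted on 4× images. Relative viability is treated-well nuclei count divided by vehicle-well nuclei count, and values are medians of duplicate plates.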

[2] = tested on: NCI-H460
Summary of the method: as §1

[3] = tested on: LU99A
Summary of the method: as §1

[4] = tested on: NCI-H2085
Summary of the method: as §1

[5] = tested on: NCI-H1437
Summary of the method: as §1

[6] = tested on: SK-LU-1
Summary of the method: as §1

[7] = tested on: NCI-H838
Summary of the method: as §1

[8] = tested on: NCI-H1650
Summary of the method: as §1

[9] = tested on: NCI-H1975
Summary of the method: as §1

[10] = tested on: BEN
Summary of the method: as §1

[11] = tested on: NCI-H2342
Summary of the method: as §1

[12] = tested on: NCI-H2023
Summary of the method: as §1

[13] = tested on: NCI-H1734
Summary of the method: as §1

[14] = tested on: NCI-H1563
Summary of the method: as §1

[15] = tested on: NCI-H441
Summary of the method: as §1

[16] = tested on: NCI-H1651
Summary of the method: as §1

[17] = tested on: COR-L23
Summary of the method: as §1

[18] = tested on: NCI-H1355
Summary of the method: as §1

[19] = tested on: NCI-H1793
Summary of the method: as §1

[20] = tested on: CAL-12T
Summary of the method: as §1

[21] = tested on: NCI-H358
Summary of the method: as §1

COc1cc2nccc(Oc3ccc(NC(=O)Nc4cc(C)on4)c(Cl)c3)c2cc1OC [Tivozanib] + CCNC(=O)c1noc(-c2cc(C(C)C)c(O)cc2O)c1-c1ccc(CN2CCOCC2)cc1 [Luminespib] (partner 0.01 µM)
relative viability ([1]; first compound 0.005 µM): 0.334 | relative viability ([1]; first compound 0.01581 µM): 0.333 | relative viability ([1]; first compound 0.05 µM): 0.374 | relative viability ([1]; first compound 0.1581 µM): 0.33 | relative viability ([1]; first compound 0.5 µM): 0.35 | relative viability ([2]; first compound 0.005 µM): 0.0252 | relative viability ([2]; first compound 0.01581 µM): 0.0365 | relative viability ([2]; first compound 0.05 µM): 0.0375 | relative viability ([2]; first compound 0.1581 µM): 0.0404 | relative viability ([2]; first compound 0.5 µM): 0.0362 | relative viability ([3]; first compound 0.005 µM): 0.206 | relative viability ([3]; first compound 0.01581 µM): 0.246 | relative viability ([3]; first compound 0.05 µM): 0.218 | relative viability ([3]; first compound 0.1581 µM): 0.203 | relative viability ([3]; first compound 0.5 µM): 0.274 | relative viability ([4]; first compound 0.005 µM): 0.431 | relative viability ([4]; first compound 0.01581 µM): 0.4 | relative viability ([4]; first compound 0.05 µM): 0.469 | relative viability ([4]; first compound 0.1581 µM): 0.431 | relative viability ([4]; first compound 0.5 µM): 0.522 | relative viability ([5]; first compound 0.005 µM): 1.14 | relative viability ([5]; first compound 0.01581 µM): 1.11 | relative viability ([5]; first compound 0.05 µM): 1.13 | relative viability ([5]; first compound 0.1581 µM): 1.13 | relative viability ([5]; first compound 0.5 µM): 1.11 | relative viability ([6]; first compound 0.005 µM): 0.197 | relative viability ([6]; first compound 0.01581 µM): 0.211 | relative viability ([6]; first compound 0.05 µM): 0.201 | relative viability ([6]; first compound 0.1581 µM): 0.184 | relative viability ([6]; first compound 0.5 µM): 0.207 | relative viability ([7]; first compound 0.005 µM): 0.196 | relative viability ([7]; first compound 0.01581 µM): 0.265 | relative viability ([7]; first compound 0.05 µM): 0.501 | relative viability ([7]; first compound 0.5 µM): 0.237 | relative viability ([8]; first compound 0.005 µM): 0.172 | relative viability ([8]; first compound 0.01581 µM): 0.209 | relative viability ([8]; first compound 0.05 µM): 0.213 | relative viability ([8]; first compound 0.1581 µM): 0.178 | relative viability ([8]; first compound 0.5 µM): 0.203 | relative viability ([9]; first compound 0.005 µM): 0.172 | relative viability ([9]; first compound 0.01581 µM): 0.34 | relative viability ([9]; first compound 0.05 µM): 0.199 | relative viability ([9]; first compound 0.1581 µM): 0.198 | relative viability ([9]; first compound 0.5 µM): 0.316 | relative viability ([10]; first compound 0.005 µM): 0.337 | relative viability ([10]; first compound 0.01581 µM): 0.305 | relative viability ([10]; first compound 0.05 µM): 0.508 | relative viability ([10]; first compound 0.1581 µM): 0.148 | relative viability ([10]; first compound 0.5 µM): 0.299 | relative viability ([11]; first compound 0.005 µM): 0.673 | relative viability ([11]; first compound 0.01581 µM): 0.656 | relative viability ([11]; first compound 0.05 µM): 0.802 | relative viability ([11]; first compound 0.5 µM): 0.626 | relative viability ([12]; first compound 0.005 µM): 0.664 | relative viability ([12]; first compound 0.01581 µM): 0.698 | relative viability ([12]; first compound 0.05 µM): 0.681 | relative viability ([12]; first compound 0.1581 µM): 0.748 | relative viability ([12]; first compound 0.5 µM): 0.763 | relative viability ([13]; first compound 0.005 µM): 0.2 | relative viability ([13]; first compound 0.01581 µM): 0.231 | relative viability ([13]; first compound 0.05 µM): 0.325 | relative viability ([13]; first compound 0.1581 µM): 0.178 | relative viability ([13]; first compound 0.5 µM): 0.18 | relative viability ([14]; first compound 0.005 µM): 0.45 | relative viability ([14]; first compound 0.01581 µM): 0.539 | relative viability ([14]; first compound 0.05 µM): 0.541 | relative viability ([14]; first compound 0.1581 µM): 0.52 | relative viability ([14]; first compound 0.5 µM): 0.472 | relative viability ([15]; first compound 0.005 µM): 0.367 | relative viability ([15]; first compound 0.01581 µM): 0.446 | relative viability ([15]; first compound 0.05 µM): 0.308 | relative viability ([15]; first compound 0.1581 µM): 0.322 | relative viability ([15]; first compound 0.5 µM): 0.399 | relative viability ([16]; first compound 0.005 µM): 0.86 | relative viability ([16]; first compound 0.01581 µM): 0.638 | relative viability ([16]; first compound 0.05 µM): 0.842 | relative viability ([16]; first compound 0.1581 µM): 0.883 | relative viability ([16]; first compound 0.5 µM): 0.931 | relative viability ([17]; first compound 0.005 µM): 0.62 | relative viability ([17]; first compound 0.01581 µM): 0.607 | relative viability ([17]; first compound 0.05 µM): 0.748 | relative viability ([17]; first compound 0.1581 µM): 0.597 | relative viability ([17]; first compound 0.5 µM): 0.532 | relative viability ([18]; first compound 0.005 µM): 0.612 | relative viability ([18]; first compound 0.01581 µM): 0.686 | relative viability ([18]; first compound 0.05 µM): 0.747 | relative viability ([18]; first compound 0.1581 µM): 0.462 | relative viability ([18]; first compound 0.5 µM): 0.728 | relative viability ([19]; first compound 0.005 µM): 0.154 | relative viability ([19]; first compound 0.01581 µM): 0.422 | relative viability ([19]; first compound 0.05 µM): 0.2 | relative viability ([19]; first compound 0.1581 µM): 0.141 | relative viability ([19]; first compound 0.5 µM): 0.237 | relative viability ([20]; first compound 0.005 µM): 0.253 | relative viability ([20]; first compound 0.01581 µM): 0.36 | relative viability ([20]; first compound 0.05 µM): 0.573 | relative viability ([20]; first compound 0.1581 µM): 0.276 | relative viability ([20]; first compound 0.5 µM): 0.594 | relative viability ([21]; first compound 0.005 µM): 0.336 | relative viability ([21]; first compound 0.01581 µM): 0.568 | relative viability ([21]; first compound 0.05 µM): 0.478 | relative viability ([21]; first compound 0.5 µM): 0.339
